Measured values from paper PMC11079024, “Identification of a family of species-selective complex I inhibitors as potential anthelmintics” (Nature Communications, 2024).

Target: C. elegans (N2) complex I (NADH:ubiquinone oxidoreductase) (Caenorhabditis elegans, UniProt P24887+Q93873+Q94360)
Test: biochemical
Format: biochemical
Conditions: Dose 0.0001 µM; read-out: C. elegans mitochondrial complex I activity
Summary of the method: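 Activity expressed as percent of solvent control. Complex I rate came from DCIP reduction at 600 nm (initial linear slope, 15 min) with NADH and decylubiquinone as substrates, plus antimycin A and KCN, in pH 7.5 KPi/BSA buffer. Isolated, thrice freeze-thawed mitochondria used at 0.2 mg/mL.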

Chain of C. elegans (N2) complex I (NADH:ubiquinone oxidoreductase) (Q94360 17-199): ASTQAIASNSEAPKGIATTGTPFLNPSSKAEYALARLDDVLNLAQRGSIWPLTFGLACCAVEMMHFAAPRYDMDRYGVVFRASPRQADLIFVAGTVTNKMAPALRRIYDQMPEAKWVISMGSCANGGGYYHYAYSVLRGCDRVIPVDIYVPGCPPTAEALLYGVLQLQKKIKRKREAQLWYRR
Chain of C. elegans (N2) complex I (NADH:ubiquinone oxidoreductase) (P24887 whole entry): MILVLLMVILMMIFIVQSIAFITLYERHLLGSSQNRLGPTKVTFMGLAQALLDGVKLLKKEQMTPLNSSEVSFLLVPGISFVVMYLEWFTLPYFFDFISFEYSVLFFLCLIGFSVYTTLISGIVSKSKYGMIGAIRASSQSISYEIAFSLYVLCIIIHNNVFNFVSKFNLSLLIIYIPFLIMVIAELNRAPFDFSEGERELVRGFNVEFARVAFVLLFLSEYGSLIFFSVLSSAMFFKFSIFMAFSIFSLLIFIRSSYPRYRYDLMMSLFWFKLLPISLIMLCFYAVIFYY
Chain of C. elegans (N2) complex I (NADH:ubiquinone oxidoreductase) (Q93873 31-482): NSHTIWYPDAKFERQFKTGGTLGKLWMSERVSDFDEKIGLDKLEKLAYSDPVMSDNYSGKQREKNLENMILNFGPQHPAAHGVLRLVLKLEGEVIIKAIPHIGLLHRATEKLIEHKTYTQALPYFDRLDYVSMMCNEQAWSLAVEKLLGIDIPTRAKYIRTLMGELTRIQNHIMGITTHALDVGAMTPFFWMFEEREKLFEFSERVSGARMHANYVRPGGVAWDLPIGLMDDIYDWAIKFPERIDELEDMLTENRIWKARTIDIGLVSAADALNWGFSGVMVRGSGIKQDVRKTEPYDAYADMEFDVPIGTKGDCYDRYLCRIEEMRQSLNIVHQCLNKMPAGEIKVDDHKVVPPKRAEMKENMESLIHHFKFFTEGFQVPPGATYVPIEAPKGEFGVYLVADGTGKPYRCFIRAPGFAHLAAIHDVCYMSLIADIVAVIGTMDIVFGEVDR

| Structure (SMILES) | activity at 0.0001 µM [%] |
| --- | --- |
| CCc1cc(OCCn2cnc3ccccc32)ccc1Cl [Compound 7925288] | 89.3 |

Same assay, conditions: Dose 0.0005 µM; read-out: C. elegans mitochondrial complex I activity

| Structure (SMILES) | activity at 0.0005 µM [%] |
| --- | --- |
| CCc1cc(OCCn2cnc3ccccc32)ccc1Cl [Compound 7925288] | 90.8 |

Same assay, conditions: Dose 0.001 µM; read-out: C. elegans mitochondrial complex I activity

| Structure (SMILES) | activity at 0.001 µM [%] |
| --- | --- |
| CCc1cc(OCCn2cnc3ccccc32)ccc1Cl [Compound 7925288] | 94 |

Same assay, conditions: Dose 0.0025 µM; read-out: C. elegans mitochondrial complex I activity

| Structure (SMILES) | activity at 0.0025 µM [%] |
| --- | --- |
| CCc1cc(OCCn2cnc3ccccc32)ccc1Cl [Compound 7925288] | 90.8 |

Same assay, conditions: Dose 0.005 µM; read-out: C. elegans mitochondrial complex I activity

| Structure (SMILES) | activity at 0.005 µM [%] |
| --- | --- |
| CCc1cc(OCCn2cnc3ccccc32)ccc1Cl [Compound 7925288] | 98.8 |

Same assay, conditions: Dose 0.013 µM; read-out: C. elegans mitochondrial complex I activity

| Structure (SMILES) | activity at 0.013 µM [%] |
| --- | --- |
| CCc1cc(OCCn2cnc3ccccc32)ccc1Cl [Compound 7925288] | 96.9 |

Same assay, conditions: Dose 0.025 µM; read-out: C. elegans mitochondrial complex I activity

| Structure (SMILES) | activity at 0.025 µM [%] |
| --- | --- |
| CCc1cc(OCCn2cnc3ccccc32)ccc1Cl [Compound 7925288] | 96.9 |

Same assay, conditions: Dose 0.063 µM; read-out: C. elegans mitochondrial complex I activity

| Structure (SMILES) | activity at 0.063 µM [%] |
| --- | --- |
| CCc1cc(OCCn2cnc3ccccc32)ccc1Cl [Compound 7925288] | 63.2 |

Same assay, conditions: Dose 0.125 µM; read-out: C. elegans mitochondrial complex I activity

| Structure (SMILES) | activity at 0.125 µM [%] |
| --- | --- |
| CCc1cc(OCCn2cnc3ccccc32)ccc1Cl [Compound 7925288] | 63.3 |

Same assay, conditions: Dose 0.313 µM; read-out: C. elegans mitochondrial complex I activity

| Structure (SMILES) | activity at 0.313 µM [%] |
| --- | --- |
| CCc1cc(OCCn2cnc3ccccc32)ccc1Cl [Compound 7925288] | 77.6 |

Same assay, conditions: Dose 0.625 µM; read-out: C. elegans mitochondrial complex I activity

| Structure (SMILES) | activity at 0.625 µM [%] |
| --- | --- |
| CCc1cc(OCCn2cnc3ccccc32)ccc1Cl [Compound 7925288] | 77.6 |

Same assay, conditions: Dose 1.5 µM; read-out: C. elegans mitochondrial complex I activity

| Structure (SMILES) | activity at 1.5 µM [%] |
| --- | --- |
| CCc1cc(OCCn2cnc3ccccc32)ccc1Cl [Compound 7925288] | 60.7 |

Same assay, conditions: Dose 3 µM; read-out: C. elegans mitochondrial complex I activity

| Structure (SMILES) | activity at 3 µM [%] |
| --- | --- |
| CCc1cc(OCCn2cnc3ccccc32)ccc1Cl [Compound 7925288] | 46.8 |

Same assay, conditions: Dose 15 µM; read-out: C. elegans mitochondrial complex I activity

| Structure (SMILES) | activity at 15 µM [%] |
| --- | --- |
| CCc1cc(OCCn2cnc3ccccc32)ccc1Cl [Compound 7925288] | 16.1 |

Same assay, conditions: Dose 37.5 µM; read-out: C. elegans mitochondrial complex I activity

| Structure (SMILES) | activity at 37.5 µM [%] |
| --- | --- |
| CCc1cc(OCCn2cnc3ccccc32)ccc1Cl [Compound 7925288] | 4.53 |

Same assay, conditions: Dose 75 µM; read-out: C. elegans mitochondrial complex I activity

| Structure (SMILES) | activity at 75 µM [%] |
| --- | --- |
| CCc1cc(OCCn2cnc3ccccc32)ccc1Cl [Compound 7925288] | 2.28 |

Same assay, conditions: in vitro complex I dose response on C. elegans mitochondria; average of at least two biological replicates; fit in R (DRC); read-out: IC50 C. elegans complex I

| Structure (SMILES) | IC50 [µM] |
| --- | --- |
| CCc1cc(OCCn2cnc3ccccc32)ccc1Cl [Compound 7925288] | 8.09 |

Same assay, conditions: log10 of IC50 in µM; C. elegans mitochondria

| Structure (SMILES) | Log IC50 C. elegans complex I [µM] |
| --- | --- |
| CCc1cc(OCCn2cnc3ccccc32)ccc1Cl [Compound 7925288] | 0.91 |

Same assay, conditions: wild-type C. elegans mitochondria; read-out: C. elegans Complex I IC50

| Structure (SMILES) | IC50 [µM] |
| --- | --- |
| CCc1cc(OCCn2cnc3ccccc32)ccc1Cl [Compound 7925288] | 8.09 |

Tested on: L1 wild-type C. elegans
Test: not given
Conditions: 50 μM; […]; hit = relative motility below 0.25 3 hours after removal of KCN

| Structure (SMILES) | Screen "Hit" |
| --- | --- |
| CCc1cc(OCCn2cnc3ccccc32)ccc1Cl [Compound 7925288] | Y (hits were identified as compounds that reduced relative motility below 0.25 (75% reduction)) |

Same assay, conditions: Dose 0.2 µM; mean of at least three biological replicates

| Structure (SMILES) | C. elegans KCN Survival |
| --- | --- |
| CCc1cc(OCCn2cnc3ccccc32)ccc1Cl [Compound 7925288] | 1.082 |

Same assay, conditions: Dose 0.39 µM

| Structure (SMILES) | C. elegans KCN Survival |
| --- | --- |
| CCc1cc(OCCn2cnc3ccccc32)ccc1Cl [Compound 7925288] | 1.088 |

Same assay, conditions: Dose 1.56 µM

| Structure (SMILES) | C. elegans KCN Survival |
| --- | --- |
| CCc1cc(OCCn2cnc3ccccc32)ccc1Cl [Compound 7925288] | 1.105 |

Same assay, conditions: Dose 3.13 µM

| Structure (SMILES) | C. elegans KCN Survival |
| --- | --- |
| CCc1cc(OCCn2cnc3ccccc32)ccc1Cl [Compound 7925288] | 1.186 |

Same assay, conditions: Dose 6.25 µM

| Structure (SMILES) | C. elegans KCN Survival |
| --- | --- |
| CCc1cc(OCCn2cnc3ccccc32)ccc1Cl [Compound 7925288] | 1.064 |

Same assay, conditions: Dose 12.5 µM

| Structure (SMILES) | C. elegans KCN Survival |
| --- | --- |
| CCc1cc(OCCn2cnc3ccccc32)ccc1Cl [Compound 7925288] | 0.930 |

Same assay, conditions: Dose 25 µM

| Structure (SMILES) | C. elegans KCN Survival |
| --- | --- |
| CCc1cc(OCCn2cnc3ccccc32)ccc1Cl [Compound 7925288] | 0.276 |

Same assay, conditions: Dose 50 µM

| Structure (SMILES) | C. elegans KCN Survival |
| --- | --- |
| CCc1cc(OCCn2cnc3ccccc32)ccc1Cl [Compound 7925288] | 0.146 |

Same assay, conditions: Dose 100 µM

| Structure (SMILES) | C. elegans KCN Survival |
| --- | --- |
| CCc1cc(OCCn2cnc3ccccc32)ccc1Cl [Compound 7925288] | 0.159 |

Tested on: not listed separately
Test: in vitro
Conditions: human, HEK293 Cell Viability Assay LC50, HEK293 cells; estimated from fitted dose-response curves

| Structure (SMILES) | CC50 at 2 days [µM] |
| --- | --- |
| CCc1cc(OCCn2cnc3ccccc32)ccc1Cl [Compound 7925288] | 34.1 |

Same assay, conditions: human, HEK293 cells (Flp-In-293), HEK293 viability, Dose 3.13 µM

| Structure (SMILES) | viability at 2 days, 3.13 µM [%] |
| --- | --- |
| CCc1cc(OCCn2cnc3ccccc32)ccc1Cl [Compound 7925288] | 91.4 |

Same assay, conditions: human, HEK293 cells (Flp-In-293), HEK293 viability, Dose 6.25 µM

| Structure (SMILES) | viability at 2 days, 6.25 µM [%] |
| --- | --- |
| CCc1cc(OCCn2cnc3ccccc32)ccc1Cl [Compound 7925288] | 96.8 |

Same assay, conditions: human, HEK293 cells (Flp-In-293), HEK293 viability, Dose 12.5 µM

| Structure (SMILES) | viability at 2 days, 12.5 µM [%] |
| --- | --- |
| CCc1cc(OCCn2cnc3ccccc32)ccc1Cl [Compound 7925288] | 93.6 |

Same assay, conditions: human, HEK293 cells (Flp-In-293), HEK293 viability, Dose 25 µM

| Structure (SMILES) | viability at 2 days, 25 µM [%] |
| --- | --- |
| CCc1cc(OCCn2cnc3ccccc32)ccc1Cl [Compound 7925288] | 81.1 |

Same assay, conditions: human, HEK293 cells (Flp-In-293), HEK293 viability, Dose 50 µM

| Structure (SMILES) | viability at 2 days, 50 µM [%] |
| --- | --- |
| CCc1cc(OCCn2cnc3ccccc32)ccc1Cl [Compound 7925288] | 8.7 |

Same assay, conditions: human, HEK293 cells (Flp-In-293), HEK293 viability, Dose 100 µM

| Structure (SMILES) | viability at 2 days, 100 µM [%] |
| --- | --- |
| CCc1cc(OCCn2cnc3ccccc32)ccc1Cl [Compound 7925288] | 7.1 |
